Reference: the supplement of paper PMC10307832

Legend:
Assay in all cases: relative viability (nuclei count vs DMSO), 5 days (fraction); higher = more cells survive
[1] = test system: NCI-H1650
Method in brief: (§1)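 Five library-drug doses in √10 steps were combined with a fixed anchor-drug dose, or a single drug was given alone, by pin tool to lung cancer cell lines in 1536-well plates the day after seeding. Nuclei were stained and counted after 5 days. Relative viability is the nuclei count in treated wells over that in vehicle wells, taken as the median of duplicate plates.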

[2] = test system: LU99A
Method in brief: as §1

[3] = test system: LK-2
Method in brief: as §1

[4] = test system: PC-14
Method in brief: as §1

[5] = test system: COR-L23
Method in brief: as §1

[6] = test system: NCI-H727
Method in brief: as §1

[7] = test system: NCI-H1437
Method in brief: as §1

[8] = test system: NCI-H1666
Method in brief: as §1

[9] = test system: COR-L 105
Method in brief: as §1

[10] = test system: NCI-H838
Method in brief: as §1

[11] = test system: CAL-12T
Method in brief: as §1

[12] = test system: NCI-H2170
Method in brief: as §1

[13] = test system: NCI-H2009
Method in brief: as §1

[14] = test system: HCC-366
Method in brief: as §1

[15] = test system: HARA
Method in brief: as §1

[16] = test system: 201T
Method in brief: as §1

[17] = test system: EKVX
Method in brief: as §1

[18] = test system: NCI-H441
Method in brief: as §1

[19] = test system: BEN
Method in brief: as §1

[20] = test system: NCI-H3122
Method in brief: as §1

Compound `O=C(O)c1ccc(-c2c[nH]c3ncc(-c4ccccc4)cc23)cc1C1CCCC1` + CC1(C)CCC(c2ccc(Cl)cc2)=C(CN2CCN(c3ccc(C(=O)NS(=O)(=O)c4ccc(N[C@H](CCN5CCOCC5)CSc5ccccc5)c(S(=O)(=O)C(F)(F)F)c4)cc3)CC2)C1 [Navitoclax] (partner 0.5 µM) has a relative viability ([1]; first compound 0.04 µM) of 1.17, a relative viability ([1]; first compound 0.1265 µM) of 1.14 and a relative viability ([1]; first compound 0.4 µM) of 0.774. For the same compound, the relative viability ([1]; first compound 1.265 µM) was 0.914, the relative viability ([2]; first compound 0.04 µM) was 0.818 and the relative viability ([2]; first compound 0.1265 µM) was 0.987. For the same compound, the relative viability ([2]; first compound 0.4 µM) was 0.735, the relative viability ([2]; first compound 1.265 µM) was 0.721 and the relative viability ([3]; first compound 0.04 µM) was 0.9. The relative viability ([3]; first compound 0.1265 µM) was 0.876, the relative viability ([3]; first compound 0.4 µM) was 0.795 and the relative viability ([3]; first compound 1.265 µM) was 0.687. It also gave a relative viability ([4]; first compound 0.04 µM) of 1.01, a relative viability ([4]; first compound 0.1265 µM) of 1.1 and a relative viability ([4]; first compound 0.4 µM) of 1.03. For the same compound, the relative viability ([4]; first compound 1.265 µM) was 0.814, the relative viability ([5]; first compound 0.04 µM) was 1.01 and the relative viability ([5]; first compound 0.1265 µM) was 1.04. For the same compound, the relative viability ([5]; first compound 0.4 µM) was 1.09, the relative viability ([5]; first compound 1.265 µM) was 0.64 and the relative viability ([6]; first compound 0.04 µM) was 0.414. The relative viability ([6]; first compound 0.1265 µM) was 0.422, the relative viability ([6]; first compound 0.4 µM) was 0.476 and the relative viability ([6]; first compound 1.265 µM) was 0.515. The relative viability ([7]; first compound 0.04 µM) was 1.03, the relative viability ([7]; first compound 0.1265 µM) was 1.22 and the relative viability ([7]; first compound 0.4 µM) was 0.955. For the same compound, the relative viability ([7]; first compound 1.265 µM) was 0.407, the relative viability ([8]; first compound 0.04 µM) was 1.02 and the relative viability ([8]; first compound 0.1265 µM) was 1.01. The relative viability ([8]; first compound 0.4 µM) was 0.849, the relative viability ([8]; first compound 1.265 µM) was 0.584 and the relative viability ([9]; first compound 0.04 µM) was 0.818. For the same compound, the relative viability ([9]; first compound 0.1265 µM) was 0.95, the relative viability ([9]; first compound 0.4 µM) was 0.733 and the relative viability ([9]; first compound 1.265 µM) was 0.717. For the same compound, the relative viability ([10]; first compound 0.04 µM) was 1.15, the relative viability ([10]; first compound 0.1265 µM) was 1.27 and the relative viability ([10]; first compound 0.4 µM) was 1.22. The relative viability ([10]; first compound 1.265 µM) was 1.07, the relative viability ([11]; first compound 0.04 µM) was 1.26 and the relative viability ([11]; first compound 0.1265 µM) was 1.21. It also gave a relative viability ([11]; first compound 0.4 µM) of 1.11, a relative viability ([11]; first compound 1.265 µM) of 1.05 and a relative viability ([12]; first compound 0.04 µM) of 0.605. The relative viability ([12]; first compound 0.1265 µM) was 0.64, the relative viability ([12]; first compound 0.4 µM) was 0.483 and the relative viability ([12]; first compound 1.265 µM) was 0.503. The relative viability ([13]; first compound 0.04 µM) was 1.15, the relative viability ([13]; first compound 0.1265 µM) was 1.1 and the relative viability ([13]; first compound 0.4 µM) was 1.15. The relative viability ([13]; first compound 1.265 µM) was 0.969, the relative viability ([14]; first compound 0.04 µM) was 0.993 and the relative viability ([14]; first compound 0.1265 µM) was 1.2. It also gave a relative viability ([14]; first compound 0.4 µM) of 0.964, a relative viability ([14]; first compound 1.265 µM) of 1.14 and a relative viability ([15]; first compound 0.04 µM) of 1.08. For the same compound, the relative viability ([15]; first compound 0.1265 µM) was 1.14, the relative viability ([15]; first compound 0.4 µM) was 1.09 and the relative viability ([15]; first compound 1.265 µM) was 1.04. The relative viability ([16]; first compound 0.04 µM) was 1.23, the relative viability ([16]; first compound 0.1265 µM) was 1.26 and the relative viability ([16]; first compound 0.4 µM) was 1.22. The relative viability ([16]; first compound 1.265 µM) was 1.13, the relative viability ([17]; first compound 0.04 µM) was 0.92 and the relative viability ([17]; first compound 0.1265 µM) was 0.967. For the same compound, the relative viability ([17]; first compound 0.4 µM) was 1.03, the relative viability ([17]; first compound 1.265 µM) was 0.655 and the relative viability ([18]; first compound 0.04 µM) was 0.751. It also gave a relative viability ([18]; first compound 0.1265 µM) of 0.583, a relative viability ([18]; first compound 0.4 µM) of 0.365 and a relative viability ([18]; first compound 1.265 µM) of 0.469. It also gave a relative viability ([19]; first compound 0.04 µM) of 0.06, a relative viability ([19]; first compound 0.1265 µM) of 0.057 and a relative viability ([19]; first compound 0.4 µM) of 0.0946. It also gave a relative viability ([19]; first compound 1.265 µM) of 0.0505, a relative viability ([20]; first compound 0.04 µM) of 1.02 and a relative viability ([20]; first compound 0.1265 µM) of 1. It also gave a relative viability ([20]; first compound 0.4 µM) of 1.03 and a relative viability ([20]; first compound 1.265 µM) of 0.976.
